Reference: the NIST ThermoML archive (doi:10.1016/j.jct.2013.12.025)

Assay: refractive index (Na D-line) (dimensionless); xn = mol fraction of the nth substance listed
Conditions: 101 kPa, Liquid, Standard Abbe refractometry

C=C[Si](C)(C)O[Si](C)(C)C=C [1,3-diethenyl-1,1,3,3-tetramethyldisiloxane] + COc1ccccc1
refractive index
Conditions | 283.15 K | 288.15 K | 293.15 K | 298.15 K | 303.15 K
x1 = 0.0501 | 1.51284 | 1.51027 | 1.50766 | 1.50499 | 1.50234
x1 = 0.1 | 1.50406 | 1.5015 | 1.49885 | 1.49617 | 1.49356
x1 = 0.15 | 1.49596 | 1.49337 | 1.49073 | 1.48807 | 1.48543
x1 = 0.2004 | 1.48841 | 1.48578 | 1.48317 | 1.48051 | 1.47786
x1 = 0.2499 | 1.48153 | 1.47893 | 1.47631 | 1.47362 | 1.47098
x1 = 0.3 | 1.47505 | 1.47247 | 1.46982 | 1.46716 | 1.4645
x1 = 0.35 | 1.46908 | 1.46651 | 1.46384 | 1.46116 | 1.45851
x1 = 0.3997 | 1.46353 | 1.46092 | 1.45829 | 1.4556 | 1.45295
x1 = 0.4499 | 1.45831 | 1.45568 | 1.45303 | 1.45034 | 1.4477
x1 = 0.5001 | 1.45338 | 1.45077 | 1.44813 | 1.44544 | 1.44279
x1 = 0.5499 | 1.44883 | 1.4462 | 1.44358 | 1.44089 | 1.43823
x1 = 0.6 | 1.4445 | 1.44188 | 1.43925 | 1.43657 | 1.43393
x1 = 0.6499 | 1.44046 | 1.43782 | 1.43521 | 1.43252 | 1.42986
x1 = 0.6999 | 1.43664 | 1.43403 | 1.43139 | 1.4287 | 1.42604
x1 = 0.7499 | 1.43304 | 1.43043 | 1.42778 | 1.4251 | 1.42244
x1 = 0.8 | 1.42961 | 1.42699 | 1.42434 | 1.42166 | 1.41901
x1 = 0.8499 | 1.42639 | 1.42377 | 1.42112 | 1.41846 | 1.4158
x1 = 0.8998 | 1.42333 | 1.4207 | 1.41806 | 1.4154 | 1.41277
x1 = 0.9499 | 1.42042 | 1.41779 | 1.41515 | 1.41251 | 1.40987
x1 = 1 | 1.41766 | 1.415 | 1.41236 | 1.4097 | 1.40707
